Test results published in paper PMC3919030 (Journal of molecular biology, 2013).

Columns and labels:
Test in all cases: size exclusion chromatography
Type in all cases: binding
SsoVps4 [1] = biological target: T1, SsoVps4 (Saccharolobus solfataricus, UniProt Q97ZJ7); conditions: 2 mM MgCl2, pH 7.4, 4 °C; 1 mM ADP
T1 sequence (Q97ZJ7 1-372): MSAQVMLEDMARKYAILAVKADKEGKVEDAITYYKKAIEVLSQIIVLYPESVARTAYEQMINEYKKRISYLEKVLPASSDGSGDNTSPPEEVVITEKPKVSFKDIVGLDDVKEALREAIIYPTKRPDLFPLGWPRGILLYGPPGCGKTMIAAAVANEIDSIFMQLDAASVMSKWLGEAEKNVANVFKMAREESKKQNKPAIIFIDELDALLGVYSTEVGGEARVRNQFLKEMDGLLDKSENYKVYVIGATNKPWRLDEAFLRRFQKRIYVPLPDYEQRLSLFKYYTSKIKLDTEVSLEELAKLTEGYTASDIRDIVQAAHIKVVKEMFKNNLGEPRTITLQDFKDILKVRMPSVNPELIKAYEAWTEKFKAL

SsoVps4 [2] = biological target: SsoVps4 (Saccharolobus solfataricus, UniProt Q97ZJ7, E206Q); conditions: 2 mM MgCl2, pH 7.4, 4 °C, Walker B mutant
Vps4p = biological target: T2, Vps4p (Saccharomyces cerevisiae, UniProt P52917, E233Q); conditions: 2 mM MgCl2, pH 7.4, 4 °C; 1 mM ATP; Walker B mutant
T2 sequence (P52917 1-437 E233Q): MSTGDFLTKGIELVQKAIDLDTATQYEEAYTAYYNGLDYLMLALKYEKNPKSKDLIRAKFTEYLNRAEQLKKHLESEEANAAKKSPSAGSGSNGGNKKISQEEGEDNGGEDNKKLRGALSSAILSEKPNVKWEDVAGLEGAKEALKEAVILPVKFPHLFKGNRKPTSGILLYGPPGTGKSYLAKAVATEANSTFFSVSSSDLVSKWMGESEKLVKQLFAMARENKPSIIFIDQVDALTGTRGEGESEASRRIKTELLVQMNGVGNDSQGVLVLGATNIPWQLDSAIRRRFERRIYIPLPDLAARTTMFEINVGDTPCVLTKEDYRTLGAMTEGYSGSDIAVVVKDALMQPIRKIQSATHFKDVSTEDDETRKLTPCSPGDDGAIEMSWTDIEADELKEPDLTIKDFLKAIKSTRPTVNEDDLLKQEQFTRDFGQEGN

| Structure (SMILES) | size exclusion chromatography (nucleotide-induced shift of oligomer) (SsoVps4 [1]) | size exclusion chromatography (nucleotide-induced shift of oligomer) (SsoVps4 [2]; 1 mM ADP) | size exclusion chromatography (nucleotide-bound oligomer) (Vps4p) | size exclusion chromatography (nucleotide-induced shift of oligomer) (SsoVps4 [2]; 1 mM ATP) |
| --- | --- | --- | --- | --- |
| Nc1ncnc2c1ncn2[C@@H]1O[C@H](COP(=O)(O)OP(=O)(O)O)[C@@H](O)[C@H]1O [ADP] | both proteins migrated slightly more rapidly when bound to ADP than ATP | both wild type and E206Q SsoVps4 eluted as lower molecular weight complexes |  |  |
| Nc1ncnc2c1ncn2[C@@H]1O[C@H](COP(=O)(O)OP(=O)(O)OP(=O)(O)O)[C@@H](O)[C@H]1O [ATP] |  |  | ATP-bound Vps4p(E233Q) migrated more rapidly than the wild type protein | both wild type and E206Q SsoVps4 eluted as lower molecular weight complexes |
